The results in this text go back to PMC3893112 (Journal of medicinal chemistry, 2013).

Test [1] concerns the target T1, human δ opioid receptor over-expressed in CHO cells (Homo sapiens, UniProt P41143). The test can be described thus: [35S]GTPγS binding assay, agonist mode, δ. The following applies: for Agonist activity at the δ receptor (in words): [35S]GTPγS. Format: biochemical. A general note: GTPγS resists hydrolysis and so accumulates on activated G proteins.
In test [2] the target is T2, human κ opioid receptor over-expressed in CHO cells (Homo sapiens, UniProt P41145). The test can be described thus: [35S]GTPγS binding assay, agonist mode, κ. The class given is biochemical.
T2 sequence (P41145 whole entry): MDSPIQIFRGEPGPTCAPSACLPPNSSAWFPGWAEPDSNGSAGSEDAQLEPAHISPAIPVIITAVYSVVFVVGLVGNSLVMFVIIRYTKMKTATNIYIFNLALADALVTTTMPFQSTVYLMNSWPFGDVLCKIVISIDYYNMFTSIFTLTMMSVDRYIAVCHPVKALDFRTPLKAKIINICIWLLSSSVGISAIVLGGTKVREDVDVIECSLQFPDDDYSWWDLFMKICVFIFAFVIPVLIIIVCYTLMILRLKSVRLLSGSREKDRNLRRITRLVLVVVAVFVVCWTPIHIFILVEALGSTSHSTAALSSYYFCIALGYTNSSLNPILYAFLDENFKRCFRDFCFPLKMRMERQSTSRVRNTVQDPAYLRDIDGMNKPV
Test [3] deals with T2, human κ opioid receptor over-expressed in CHO cells. The test can be described thus: Inhibition of κ agonist-stimulated [35S]GTPγS binding. Format: biochemical. As to conditions: for Antagonist κ, U50,488 Ke: vs κ agonist-stimulated [35S]GTPγS binding.
The next test concerns the target human MOR (Homo sapiens, UniProt P35372). Put plainly: Competition radioligand binding, [3H]DAMGO. As to conditions: Ki vs Kd of DAMGO.
The target of test [4] is T1, human δ opioid receptor over-expressed in CHO cells. The test can be described thus: Inhibition of DPDPE-stimulated [35S]GTPγS binding. The class given is biochemical. The following applies: for Antagonist δ, DPDPE Ke: vs DPDPE-stimulated [35S]GTPγS binding.
The target of test [5] is human μ opioid receptor over-expressed in CHO cells (Homo sapiens, UniProt P35372). The test can be described thus: [35S]GTPγS binding assay, agonist mode, μ. Format: biochemical.
Sequence of human μ opioid receptor over-expressed in CHO cells (P35372 whole entry): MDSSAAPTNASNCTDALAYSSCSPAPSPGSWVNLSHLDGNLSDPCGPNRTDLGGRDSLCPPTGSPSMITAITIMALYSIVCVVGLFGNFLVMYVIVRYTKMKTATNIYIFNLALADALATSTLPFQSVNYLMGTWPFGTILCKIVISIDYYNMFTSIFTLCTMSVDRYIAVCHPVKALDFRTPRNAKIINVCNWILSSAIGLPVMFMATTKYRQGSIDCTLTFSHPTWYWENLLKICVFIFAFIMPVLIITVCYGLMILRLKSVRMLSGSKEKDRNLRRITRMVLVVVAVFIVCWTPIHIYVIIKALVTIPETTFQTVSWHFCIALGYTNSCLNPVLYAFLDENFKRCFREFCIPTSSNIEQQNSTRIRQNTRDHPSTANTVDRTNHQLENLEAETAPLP

T1 sequence (P41143 whole entry): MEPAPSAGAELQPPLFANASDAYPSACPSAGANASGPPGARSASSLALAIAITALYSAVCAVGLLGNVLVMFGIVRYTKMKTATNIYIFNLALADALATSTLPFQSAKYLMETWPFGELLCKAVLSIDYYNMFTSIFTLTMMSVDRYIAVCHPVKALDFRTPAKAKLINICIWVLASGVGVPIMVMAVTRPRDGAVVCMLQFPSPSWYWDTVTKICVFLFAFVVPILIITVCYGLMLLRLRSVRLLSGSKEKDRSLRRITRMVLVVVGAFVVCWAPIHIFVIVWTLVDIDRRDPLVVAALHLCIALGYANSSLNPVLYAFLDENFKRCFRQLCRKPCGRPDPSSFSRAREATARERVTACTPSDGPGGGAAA
Sequence of human MOR (P35372 whole entry): as the sequence (P35372 whole entry) above

On to `C[C@@H]1CN(CCCc2ccccc2)[C@H]2C[C@H](NCC3CC3)C[C@]1(c1cccc(O)c1)C2.Cl.Cl` [Compound 5e, 7-(N-Cyclopropylmethylamino)-5-(3-hydroxyphenyl)-4-methyl-2-(3-phenylprop-1-yl)-2-azabicyclo[3.3.1]nononane], for which the 50% effective concentration (EC50) in test [1] and in test [2] was above 5000 nM each time.
With `C[C@@H]1CN(CCCc2ccccc2)[C@H]2C[C@H](N(C)C)C[C@]1(c1cccc(O)c1)C2.Cl.Cl` [Compound 5f, 7-Dimethylamino-5-(3-hydroxyphenyl)-4-methyl-2-(3-phenylprop-1-yl)-2-azabicyclo[3.3.1]nononane], in test [3], the Kb turned out to be 176 ± 50 nM and the “Antagonist κ, U50,488 Ke” value stood at 176 nM. The molecule further yielded a 50% effective concentration (EC50) in test [2] above 5000 nM. The “Affinity for MOR compared with DAMGO” value at human MOR was “higher affinity for MOR than DAMGO”.
Turning to `C[C@@H]1CN(CCCc2ccccc2)[C@H]2C[C@H](N(C)CC3CC3)C[C@]1(c1cccc(O)c1)C2.Cl.Cl` [Compound 5h, 7-(N-Cyclopropylmethylmethylamino)-5-(3-hydroxyphenyl)-4-methyl-2-(3-phenylprop-1-yl)-2-azabicyclo[3.3.1]nononane], the “Affinity for MOR compared with DAMGO” value at human MOR is “higher affinity for MOR than DAMGO”.
With `CCN(C)[C@H]1C[C@H]2C[C@@](c3cccc(O)c3)(C1)[C@H](C)CN2CCCc1ccccc1` [Compound 5g, 7-(N-Ethylmethylamino)-5-(3-hydroxyphenyl)-4-methyl-2-(3-phenylprop-1-yl)-2 azabicyclo[3.3.1]nononane], the results for the Kb in test [3] and in test [4] were 93 ± 29 nM and above 5000 nM, respectively. The EC50 in test [1] and in test [2] was above 5000 nM each time.
Turning to `CN[C@H]1C[C@H]2C[C@@](c3cccc(O)c3)(C1)[C@H](C)CN2CCCc1ccccc1.Cl.Cl` [Compound 5b, 5-(3-Hydroxyphenyl)-4-methyl-7-methylamino-2-(3-phenylprop-1-yl)-2-azabicyclo[3.3.1]nononane], in test [3], the Kb worked out at 43.8 ± 8 nM and the “Antagonist κ, U50,488 Ke” value stood at 43.8 nM. The EC50 in test [2] is above 5000 nM. Moreover, the “Affinity for MOR compared with DAMGO” value on human MOR was “higher affinity for MOR than DAMGO”.
Consider `C[C@@H]1CN(CCCc2ccccc2)[C@@H]2CCC[C@]1(c1cccc(O)c1)C2.Cl` [Compound 4, 3-[(1R,4S,5S)-4-Methyl-2-(3-phenylpropyl)-2-azabicyclo[3.3.1]non-5-yl]phenol], for which the EC50 in test [1], in test [2] and in test [5] was above 5000 nM in each case.
As for `C[C@H]1CN(CCCc2ccccc2)[C@@H]2C[C@@H](N)C[C@@]1(c1cccc(O)c1)C2` [Compound 6, (1S,4R,5R,7S)-7-aminomorphan], in test [3], the Kb was determined as 21.7 ± 7 nM and the “Antagonist κ, U50,488 Ke” value is 21.7 nM. In test [1], this molecule returned a concentration for a half-maximal effect (EC50) above 5000 nM. Also, the EC50 in test [2] was above 5000 nM. Further, in test [4], the Kb came to 25.2 ± 8 nM and the “Antagonist δ, DPDPE Ke” value came to 25.2 nM. The molecule further registered an IC50 in test [5] of 20.6 nM.
In the case of `CCCN[C@H]1C[C@H]2C[C@@](c3cccc(O)c3)(C1)[C@H](C)CN2CCCc1ccccc1.Cl.Cl` [Compound 5d, 5-(3-Hydroxyphenyl)-4-methyl-2-(3-phenylprop-1-yl)-7-propylamino-2-azabicyclo[3.3.1]nononane], in test [1], the EC50 was above 5000 nM and the “Agonist activity at the δ receptor (in words)” value is listed as “no agonist activity”. In test [4], the Kb was 69.4 ± 16 nM and the “Antagonist δ, DPDPE Ke” value was found to be 69.4 nM.
In the case of `CCN[C@H]1C[C@H]2C[C@@](c3cccc(O)c3)(C1)[C@H](C)CN2CCCc1ccccc1.Cl.Cl` [Compound 5c, 7-Ethylamino-5-(3-hydroxyphenyl)-4-methyl-2-(3-phenlylprop-1-yl)-2-azabicyclo[3.3.1]nononane], in test [3], the Kb amounted to 60.8 ± 19 nM and the “Antagonist κ, U50,488 Ke” value is listed as 60.8 nM. For the same molecule, in test [1], the EC50 is above 5000 nM and the “Agonist activity at the δ receptor (in words)” value was “complete loss of agonist activity”. The molecule also came in with a concentration for a half-maximal effect (EC50) in test [2] above 5000 nM. In addition, in test [4], the Kb turned out to be 230 ± 93 nM and the “Antagonist δ, DPDPE Ke” value turned out to be 230 nM.
For the molecule `C[C@@H]1CN(CCCc2ccccc2)[C@H]2C[C@H](N)C[C@]1(c1cccc(O)c1)C2.Cl.Cl` [Compound 5a, (−)-5-(3-hydroxyphenyl)-4-methyl-2-(3-phenylpropyl)-2-azabicyclo[3.3.1]nonan-7-amine], in test [3], the Kb is 10.1 ± 3 nM and the “Antagonist κ, U50,488 Ke” value was determined as 10.1 nM. For the same molecule, the concentration for a half-maximal effect (EC50) in test [2] was above 5000 nM.

For orientation: EC50 means the concentration giving half of the maximal effect. One may read the IC50 as the concentration at which inhibition is half-maximal.
